Data from patent publication US9359338B2, “Cyclopropanecarboxamido-substitute aromatic compounds as anti-tumor agents” (Crown Bioscience Inc. (Taiwan), priority 2012, dated 2016).
Where two headings read alike, the source gives them in different places.

Assays:
[1] = target: KDR kinase (790-1356 AA) (Homo sapiens (Human), UniProt P35968); test: Inhibitory activity at KDR kinase (Lance Ultra Ulight-TK assay); assay type: biochemical
Summary of the method: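 Kinase (20 nM final) and compound were premixed 20 min at 30 °C, then phosphorylation ran 2 h at 30 °C with ATP at 90 μM and Ulight-TK substrate at 50 μM, pH 7.5, Mg2+ and Mn2+ present.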

[2] = test system: pERK in MDA-MB-231 cells; test: Inhibitory activity at pERK (In Cell Western, MDA-MB-231 cells); assay type: cell-based; conditions: Homo sapiens
Summary of the method: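 pERK was measured by in-cell immunofluorescence (PI nuclear counterstain, Acumen read-out) in fixed MDA-MB-231 cells. Compound exposure lasted 2 h in DMEM with 0.1% BSA, using eight 3-fold dilutions starting at 30 μM final and 0.3% DMSO. IC50 values were derived from the resulting curves.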

[3] = test system: PLC-PRF-5 cells; test: Inhibition of proliferation of PLC-PRF-5 cells (ATPlite); assay type: cell-based; conditions: Homo sapiens
Summary of the method: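 Antiproliferative IC50 from luminescent ATP detection (ATPlite) after 96 h compound exposure at 37 °C. Cells grown in DMEM plus 10% FBS and allowed 2 h to settle, then dosed with eight 3-fold dilutions topping at 30 μM final, DMSO 0.3%.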

[4] = target: B-Raf kinase (Homo sapiens (Human), UniProt P15056); test: Inhibitory activity at B-Raf kinase (ADP-GLO assay); assay type: biochemical
Summary of the method: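 B-Raf (5 nM) was preincubated with compound (0.25% DMSO final) for 20 min at 30 °C in 50 mM Hepes pH 7.5, 10 mM Mg²⁺, 1 mM EGTA, 2 mM DTT. Reaction with 6 μM ATP and 30 nM GST-MEK1 ran 2 hrs at 30 °C. ADP was detected by ADP-GLO luminescence, giving IC50 values.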

[5] = MDA-MB-231, MDA-MB-231 cells, read-out: MDA-MB-231 pERK IC50
[6] = PLC-PRF-5, PLC-PRF-5 cells, read-out: PLC-PRF-5 cell proliferation IC50

Chain of KDR kinase (790-1356 AA) (P35968 790-1356): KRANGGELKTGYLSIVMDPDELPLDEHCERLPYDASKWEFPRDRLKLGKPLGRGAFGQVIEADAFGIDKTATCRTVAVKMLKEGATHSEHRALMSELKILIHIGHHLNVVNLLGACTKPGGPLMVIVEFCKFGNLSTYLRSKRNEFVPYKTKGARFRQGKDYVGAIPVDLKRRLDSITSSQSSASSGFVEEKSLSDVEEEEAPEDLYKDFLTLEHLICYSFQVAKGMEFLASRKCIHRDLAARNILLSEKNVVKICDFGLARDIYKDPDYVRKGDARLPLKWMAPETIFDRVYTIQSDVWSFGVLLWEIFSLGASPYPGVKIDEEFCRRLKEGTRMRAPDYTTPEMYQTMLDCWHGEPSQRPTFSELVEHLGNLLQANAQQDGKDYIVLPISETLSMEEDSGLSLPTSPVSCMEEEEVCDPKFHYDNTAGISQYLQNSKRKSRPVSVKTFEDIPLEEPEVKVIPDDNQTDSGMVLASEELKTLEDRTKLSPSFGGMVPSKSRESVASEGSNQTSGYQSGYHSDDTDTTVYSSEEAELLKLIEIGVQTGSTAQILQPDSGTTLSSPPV
Chain of B-Raf kinase (P15056 416-766): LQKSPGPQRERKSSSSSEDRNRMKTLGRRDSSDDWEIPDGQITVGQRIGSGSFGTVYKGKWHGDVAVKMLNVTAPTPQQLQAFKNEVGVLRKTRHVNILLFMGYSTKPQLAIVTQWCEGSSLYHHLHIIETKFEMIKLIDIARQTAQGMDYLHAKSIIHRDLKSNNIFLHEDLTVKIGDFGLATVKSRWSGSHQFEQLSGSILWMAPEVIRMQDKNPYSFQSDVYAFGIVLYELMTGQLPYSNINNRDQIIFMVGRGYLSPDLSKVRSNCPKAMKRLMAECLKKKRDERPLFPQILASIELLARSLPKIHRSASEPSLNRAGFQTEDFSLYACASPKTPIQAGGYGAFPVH

Row | SMILES | IC50 [1] | IC50 [2, 5] | IC50 [3, 6] | IC50 [4] | IC50 ([2]; MDA-MB-231, read-out: MDA-MB-231 pERK IC50) | IC50 ([3]; PLC-PRF-5, read-out: PLC-PRF-5 cell proliferation IC50)
1 | O=C(Nc1cc(N2CCOCC2)cc(C(F)(F)F)c1)Nc1ccc(Oc2ccnc(NC(=O)C3CC3)c2)c(F)c1 [Exe. 189] | 10.7 nM | 19.3 nM | 260 nM | 29.8 nM |  | 
2 | N#Cc1cc(NC(=O)Nc2ccc(Oc3ccnc(NC(=O)C4CC4)c3)c(F)c2)cc(C(F)(F)F)c1 [Exe. 190] | 11.9 nM | 74.3 nM | 875 nM | 87 nM |  | 
3 | Cc1cc(Oc2ccnc(NC(=O)C3CC3)c2)ccc1NC(=O)Nc1ccc(F)c(C(F)(F)F)c1 [Exe. 191] | 11.8 nM | 9.4 nM | 2530 nM | 10 nM |  | 
4 | Cc1cc(Oc2ccnc(NC(=O)C3CC3)c2)ccc1NC(=O)Nc1cccc(C(F)(F)F)c1 [Exe. 193] | 10.9 nM | 7.4 nM | 2300 nM | 6.8 nM |  | 
5 | Cc1cc(Oc2ccnc(NC(=O)C3CC3)c2)ccc1NC(=O)Nc1cccc(OC(F)(F)F)c1 [Exe. 194] | 10.5 nM | 9.5 nM | 2320 nM | 8.8 nM |  | 
6 | Cc1cc(Oc2ccnc(NC(=O)C3CC3)c2)ccc1NC(=O)Nc1cc(OC(F)(F)F)ccc1F [Exe. 195] | 6.1 nM | 10.1 nM | 790 nM | 13 nM |  | 
7 | Cc1cc(Oc2ccnc(NC(=O)C3CC3)c2)ccc1NC(=O)Nc1ccc(F)c(OC(F)(F)F)c1 [Exe. 196] | 11.8 nM | 14.6 nM | 2500 nM | 13 nM |  | 
8 | Cc1cc(Oc2ccnc(NC(=O)C3CC3)c2)ccc1NC(=O)Nc1ccc(Cl)c(C(C)(F)F)c1 [Exe. 199] | 14 nM | 11 nM | 3700 nM | 11.7 nM |  | 
9 | O=C(Nc1ccc(F)c(C(F)(F)F)c1)Nc1ccc(Oc2ccnc(NC(=O)C3CC3)c2)cc1F [Exe. 205] | 25.1 nM | 9.2 nM | 1090 nM | 13 nM |  | 
10 | O=C(Nc1cc(F)cc(C(F)(F)F)c1)Nc1ccc(Oc2ccnc(NC(=O)C3CC3)c2)cc1F [Exe. 208] | 14.9 nM | 9.8 nM | 640 nM | 37 nM |  | 
11 | O=C(Nc1ccc(Oc2ccnc(NC(=O)C3CC3)c2)cc1F)Nc1cc(C(F)(F)F)ccc1F [Exe. 209] | 8.4 nM | 5.9 nM | 51 nM | 9 nM |  | 
12 | O=C(Nc1ccc(Oc2ccnc(NC(=O)C3CC3)c2)cc1F)Nc1cc(C(F)(F)F)ccc1Cl [Exe. 210] | 11.8 nM | 17 nM | 636 nM | 19 nM |  | 
13 | O=C(Nc1cccc(C(F)(F)F)c1)Nc1ccc(Oc2ccnc(NC(=O)C3CC3)c2)cc1F [Exe. 211] | 7.8 nM | 2.3 nM | 190 nM | 6.4 nM |  | 
14 | O=C(Nc1cc(N2CC(F)(F)C2)cc(C(F)(F)F)c1)Nc1ccc(Oc2ccnc(NC(=O)C3CC3)c2)cc1F [Exe. 212] | 5.5 nM | 21.1 nM | 177 nM | 20.1 nM |  | 
15 | O=C(Nc1ccc(F)c(OC(F)(F)F)c1)Nc1ccc(Oc2ccnc(NC(=O)C3CC3)c2)cc1F [Exe. 215] | 13.2 nM | 14.5 nM | 618 nM | 19 nM |  | 
16 | CC(F)(F)c1ccnc(NC(=O)Nc2ccc(Oc3ccnc(NC(=O)C4CC4)c3)cc2F)c1 [Exe. 216] | 10.6 nM | 11.8 nM | 536 nM | 10 nM |  | 

Row | SMILES | IC50 [1] | IC50 [2, 5] | IC50 [3, 6] | IC50 [4] | IC50 ([2]; MDA-MB-231, read-out: MDA-MB-231 pERK IC50) | IC50 ([3]; PLC-PRF-5, read-out: PLC-PRF-5 cell proliferation IC50)
17 | CC(F)(F)c1cccc(NC(=O)Nc2ccc(Oc3ccnc(NC(=O)C4CC4)c3)cc2F)c1 [Exe. 217] | 9.9 nM | 2.3 nM | 178 nM | 8.9 nM |  | 
18 | CC(F)(F)c1ccc(F)c(NC(=O)Nc2ccc(Oc3ccnc(NC(=O)C4CC4)c3)cc2F)c1 [Exe. 218] | 9.1 nM | 3.1 nM | 21 nM | 7.8 nM |  | 
19 | CC(F)(F)c1cc(NC(=O)Nc2ccc(Oc3ccnc(NC(=O)C4CC4)c3)cc2F)ccc1Cl [Exe. 219] | 11 nM | 8.8 nM | 632 nM | 8.3 nM |  | 
20 | CC(F)(F)c1cc(NC(=O)Nc2ccc(Oc3ccnc(NC(=O)C4CC4)c3)cc2F)ccc1F [Exe. 220] | 14.9 nM | 4.6 nM | 240 nM | 7.1 nM |  | 
21 | N#Cc1ccc(NC(=O)Nc2ccc(Oc3ccnc(NC(=O)C4CC4)c3)cc2F)cc1Cl [Exe. 221] | 6.7 nM |  |  | 11 nM | 7.8 nM | 1270 nM
22 | Cc1ccc(Oc2ccnc(NC(=O)C3CC3)c2)cc1NC(=O)Nc1cc(F)cc(C(F)(F)F)c1 [Exe. 224] | 9.5 nM | 22.4 nM | 4700 nM | 29 nM |  | 
23 | Cc1ccc(Oc2ccnc(NC(=O)C3CC3)c2)cc1NC(=O)Nc1cc(C(F)(F)F)ccc1F [Exe. 225] | 10.7 nM | 12 nM | 5720 nM | 11 nM |  | 
24 | Cc1ccc(Oc2ccnc(NC(=O)C3CC3)c2)cc1NC(=O)Nc1cc(C(C)(F)F)ccc1F [Exe. 227] | 17.2 nM | 34.4 nM | 17800 nM | 27 nM |  | 
25 | Cc1cc(NC(=O)Nc2ccc(F)c(C(F)(F)F)c2)ccc1Oc1ccnc(NC(=O)C2CC2)c1 [Exe. 230] | 11.7 nM | 12 nM | 830 nM | 20.7 nM |  | 
26 | Cc1cc(NC(=O)Nc2cccc(C(F)(F)F)c2)ccc1Oc1ccnc(NC(=O)C2CC2)c1 [Exe. 231] | 11.6 nM | 7.1 nM | 310 nM | 12.5 nM |  | 
27 | Cc1cc(NC(=O)Nc2cccc(OC(F)(F)F)c2)ccc1Oc1ccnc(NC(=O)C2CC2)c1 [Exe. 232] | 11 nM | 10.9 nM | 418 nM | 14 nM |  | 
28 | Cc1cc(NC(=O)Nc2cc(C(C)(F)F)ccc2F)ccc1Oc1ccnc(NC(=O)C2CC2)c1 [Exe. 234] | 9.9 nM | 6.8 nM | 63 nM | 16 nM |  | 
29 | Cc1cc(NC(=O)Nc2ccc(Cl)c(C(C)(F)F)c2)ccc1Oc1ccnc(NC(=O)C2CC2)c1 [Exe. 235] | 13.4 nM | 12.2 nM | 1290 nM | 22 nM |  | 
30 | O=C(Nc1ccc(Oc2ccnc(NC(=O)C3CC3)c2)cc1)Nc1cc(OCC2CNC2)cc(C(F)(F)F)c1 [Exe. 237, N-[4-[4-[[3-(azetidin-3-ylmethoxy)-5-(trifluoromethyl)phenyl]carbamoylamino]phenoxy]-2-pyridyl]cyclopropanecarboxamide] | 13.9 nM | 730 nM | 14900 nM | 3.7 nM |  | 
31 | Nc1cc(NC(=O)Nc2ccc(Oc3ccnc(NC(=O)C4CC4)c3)c(F)c2)cc(C(F)(F)F)c1 [Exe. 239] | 9.7 nM | 27.2 nM | 930 nM | 7 nM |  | 
32 | CN1CC(Oc2cc(NC(=O)Nc3ccc(Oc4ccnc(NC(=O)C5CC5)c4)cc3)cc(C(F)(F)F)c2)C1 [Exe. 241, N-[4-[4-[[3-(1-methylazetidin-3-yl)oxy-5-(trifluoromethyl)phenyl]carbamoylamino]phenoxy]-2-pyridyl]cyclopropanecarboxamide] | 17.9 nM | 61.5 nM | 1770 nM | 9.1 nM |  | 
